From US20130331610A1, “Halogenated Pyrazolo[1,5-A]Pyrimidines, Processes, Uses, Compositions and Intermediates” (priority 2005, published 2013)
Where two headings read alike, the source gives them in different places.

Key:
motor activity of mice = assay: In vivo predictive sedation-hypnosis test in mice (inhibition of traveled distance); design: species or system mouse; conditions: for inhibition in vivo at 0.98 µmol/kg / inhibition in vivo at 98 µmol/kg / inhibition in vivo at 3 µmol/kg: Mus musculus, read-out: % Inhib motor activity; for inhibition in vivo at 0.98 µmol/kg: 0.98 μmol/kg; for inhibition in vivo at 0.98 µmol/kg / inhibition in vivo at 98 µmol/kg / inhibition in vivo at 3 µmol/kg / inhibition percentage (motor activity): mice; for inhibition in vivo at 98 µmol/kg: 98 μmol/kg; for inhibition in vivo at 3 µmol/kg: 3 μmol/kg; for inhibition percentage (motor activity): 3 μmol/kg po
Description: 2—In Vivo Determination of Predictive Sedative-Hypnotic Action
The in vivo effects of these compounds were assessed by a predictive sedation-hypnosis test in mice (D. J. Sanger et al., Eur. J. Pharmacol., 313, 35-42, 1996; and G. Griebel et al., Psychopharmacology, 146, 205-213, 1999).
Groups of 5-8 male CD1 mice, weighing 22-26 g at the time of testing, were used. The test compounds were administered in single equimolecular intraperitoneal doses, suspended in 0.25% agar with one drop of Tween 80 in a volume of 10 ml/kg. Two doses were tested in each route. Control animals received the vehicle alone. Using a Smart System (Panlab, S. L., Spain) the traveled distance in cm was recorded for each mouse at 5-min intervals during a period of 30 minutes after intraperitoneal (ip) dosing and 60 minutes after oral (po) dosing. The inhibition percentage of traveled distance of treated animals versus control animals (the first 5 min were discarded) was calculated.

[1] = target: α2 subunit of GABAA receptor (Rattus norvegicus, UniProt P18508+P23576); assay: biochemical; conditions: for inhibition at 10 µM: read-out: % Inhib 10^−5 M; for inhibition at 0.1 µM: read-out: % Inhib 10^−7 M
Sequence of α2 subunit of GABAA receptor (P23576 29-451): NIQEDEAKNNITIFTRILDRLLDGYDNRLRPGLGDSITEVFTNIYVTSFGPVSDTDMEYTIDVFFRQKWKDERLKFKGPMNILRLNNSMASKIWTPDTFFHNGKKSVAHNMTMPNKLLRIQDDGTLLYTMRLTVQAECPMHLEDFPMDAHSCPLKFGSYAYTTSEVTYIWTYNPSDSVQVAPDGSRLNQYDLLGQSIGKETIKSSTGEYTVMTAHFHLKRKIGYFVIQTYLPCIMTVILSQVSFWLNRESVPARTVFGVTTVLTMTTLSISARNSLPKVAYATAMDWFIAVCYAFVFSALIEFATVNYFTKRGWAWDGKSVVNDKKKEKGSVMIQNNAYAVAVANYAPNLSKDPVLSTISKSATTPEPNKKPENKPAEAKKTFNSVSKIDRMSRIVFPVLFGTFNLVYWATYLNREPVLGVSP
Sequence of α2 subunit of GABAA receptor (P18508 39-466): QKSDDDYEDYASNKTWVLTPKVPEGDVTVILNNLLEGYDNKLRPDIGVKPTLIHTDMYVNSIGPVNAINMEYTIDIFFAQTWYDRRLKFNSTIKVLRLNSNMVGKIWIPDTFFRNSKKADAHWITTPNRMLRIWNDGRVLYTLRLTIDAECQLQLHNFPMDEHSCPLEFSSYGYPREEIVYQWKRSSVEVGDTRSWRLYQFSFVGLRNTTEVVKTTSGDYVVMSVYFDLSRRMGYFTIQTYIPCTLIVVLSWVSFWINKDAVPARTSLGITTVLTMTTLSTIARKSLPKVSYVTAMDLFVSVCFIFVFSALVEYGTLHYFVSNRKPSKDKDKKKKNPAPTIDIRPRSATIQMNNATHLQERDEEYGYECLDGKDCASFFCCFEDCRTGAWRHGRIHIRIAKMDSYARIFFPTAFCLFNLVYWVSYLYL
Sequence of α2 subunit of GABAA receptor (P63079 26-473 partner): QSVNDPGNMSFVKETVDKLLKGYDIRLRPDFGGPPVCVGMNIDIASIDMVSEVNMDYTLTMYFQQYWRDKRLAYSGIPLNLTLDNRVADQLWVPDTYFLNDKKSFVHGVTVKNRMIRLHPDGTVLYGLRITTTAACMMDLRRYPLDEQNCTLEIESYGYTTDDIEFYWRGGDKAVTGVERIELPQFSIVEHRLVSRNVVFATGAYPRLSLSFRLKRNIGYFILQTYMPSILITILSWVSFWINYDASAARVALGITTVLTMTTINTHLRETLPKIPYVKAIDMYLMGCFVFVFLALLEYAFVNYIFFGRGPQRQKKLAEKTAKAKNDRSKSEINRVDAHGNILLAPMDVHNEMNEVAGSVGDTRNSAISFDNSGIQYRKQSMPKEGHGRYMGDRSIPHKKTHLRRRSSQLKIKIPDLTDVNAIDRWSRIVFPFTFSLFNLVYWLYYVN
Description: Determination of the Affinity of Test Compounds for α1- and α2-GABAA Receptor
Male Sprague-Dawley rats weighing 200-250 g at the time of experiment were used. After decapitation, the cerebellum (tissue that mostly contains α1-GABAA receptor) and spinal cord (tissue that mostly contains α2-GABAA receptor) were removed. […] Once the tissues weighed, they were suspended in 50 mM Tris.HCl (pH 7.4), 1:40 (v/v), or sucrose 0.32 M in the case of spinal cord, homogenized and then centrifuged at 20000 g for 10 min at 7° C. The resulting pellet was resuspended under the same conditions and centrifuged again. The pellet was finally resuspended on a minimum volume and kept at −80° C. overnight. On the next day, the process was repeated until the final pellet was resuspended at a ratio of 1:10 (v/v) in the case of cerebellum and at a ratio of 1:5 (v/v) in the case of spinal cord.
Affinity was determined by competitive tests using radiolabeled flumazenil as ligand. […] Simultaneously, the membranes were only incubated with the radiolabeled flumazenil (total binding, 100%) and in the presence of an elevated concentration of unradiolabeled flumazenil (non-specific binding, % estimation of radiolabeled ligand). The reactions started on adding the radiolabeled ligand followed by incubation for 60 minutes at 4° C. At the end of the incubation period, 200 μl of reaction were transferred to a multiscreen plate (Millipore) and filtered using a vacuum manifold and then washed three times with cold test buffer. The multiscreen plates were equipped with a GF/B filter that retained the membranes containing the receptors and the radiolabeled ligand which had been bound to the receptors. After washing, the plates were left till dry. Once dried, scintillation liquid was added and left under stirring overnight. The next day the plates were counted using a Perkin-Elmer Microbeta scintillation counter.
where, X: amount of bound ligand for every concentration of compound. T: total binding, maximum amount bound to the radiolabeled ligand. N: non-specific binding, amount of radiolabeled ligand bound in a non-specific way irrespective of the receptor used.
Every concentrations of each compound were tested in triplicate and their mean values were used to determine the experimental values of % specific binding versus the concentration of compound.

[2] = target: α1 subunit of GABAA receptor (Rattus norvegicus, UniProt P18508+P62813); assay: biochemical; conditions: for inhibition at 10 µM: read-out: % Inhib 10^−5 M; for inhibition at 0.1 µM: read-out: % Inhib 10^−7 M
Sequence of α1 subunit of GABAA receptor (P62813 28-455): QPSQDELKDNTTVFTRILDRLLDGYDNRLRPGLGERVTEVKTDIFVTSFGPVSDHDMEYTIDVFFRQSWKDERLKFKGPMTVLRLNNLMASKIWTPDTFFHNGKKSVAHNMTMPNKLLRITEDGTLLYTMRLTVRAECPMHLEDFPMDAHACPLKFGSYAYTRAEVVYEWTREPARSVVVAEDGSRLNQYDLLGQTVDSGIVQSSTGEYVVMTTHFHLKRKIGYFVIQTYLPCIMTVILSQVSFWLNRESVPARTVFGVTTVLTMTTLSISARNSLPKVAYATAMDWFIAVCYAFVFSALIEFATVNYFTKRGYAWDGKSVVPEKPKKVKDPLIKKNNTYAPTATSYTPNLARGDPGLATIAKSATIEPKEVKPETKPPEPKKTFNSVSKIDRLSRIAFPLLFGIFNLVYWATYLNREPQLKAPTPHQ
Sequence of α1 subunit of GABAA receptor (P18508 39-466): as the sequence (P18508 39-466) above
Sequence of α1 subunit of GABAA receptor (P63138 26-474 partner): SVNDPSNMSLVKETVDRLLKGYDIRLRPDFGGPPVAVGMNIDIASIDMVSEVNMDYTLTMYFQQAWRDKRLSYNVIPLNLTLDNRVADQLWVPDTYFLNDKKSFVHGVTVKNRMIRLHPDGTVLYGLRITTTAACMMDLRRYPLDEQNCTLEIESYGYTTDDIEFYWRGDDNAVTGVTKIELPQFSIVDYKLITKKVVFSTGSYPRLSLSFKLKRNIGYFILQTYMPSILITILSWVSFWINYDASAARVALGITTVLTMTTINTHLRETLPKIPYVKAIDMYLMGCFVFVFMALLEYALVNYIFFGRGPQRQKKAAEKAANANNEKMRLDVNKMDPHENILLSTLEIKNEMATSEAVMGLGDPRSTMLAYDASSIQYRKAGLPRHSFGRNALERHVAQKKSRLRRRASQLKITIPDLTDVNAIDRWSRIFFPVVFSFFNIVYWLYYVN
Excerpt: % specific binding=(X−N/T−N)×100

[3] = Pharmacokinetic profile after single intravenous dose in rats; format: in vivo; conditions: rat; for Vd / clearance / half-life: male, Sprague-Dawley, plasma; for Vd / clearance / half-life / AUC0-t: mean
Description: In Vivo Determination of Pharmacokinetic Profile after Single Dose
Indiplon was used as reference compound. Three male Sprague-Dawley rats, weighing 250-300 g were used for each compound. The sampling was performed by retroorbital sinus puncture at the following time points 2.5, 5, 30, 60, 120, 180, 300 and 420 min post-administration. The samples were kept in an ice-bath until plasma separation. The animals were anaesthetized by isoflurane inhaled at each extraction. Plasma was separated by centrifugation (10 min, 4° C., 4500 rpm) and stored at temperature below −70° C. until analysis.
An analytical method based on an extraction of each compound by liquid-solid extraction and subsequent determination by LC/MS or LC/MS/MS using an internal standard (IS) was used.
Calculation of pharmacokinetic parameters (AUC0-t=area under the curve from zero to last extraction time-point, Cl=clearance, t1/2=half-life and Vd=volume of distribution) according to non-compartmental analysis was performed.

[4] = Metabolic stability in human hepatocytes cytosolic fraction; format: in vitro ADME; conditions: 5 μM, 1.0 mg/ml human cytosol, 37° C.
Description: In Vitro Determination of Metabolic Stability in Human Hepatocytes Cytosolic Fraction
Compounds were dissolved in DMSO to achieve an initial concentration of 10 mM. This stock solution was then diluted with solvent and buffer to obtain final assay concentration of 5 μM. Compounds were tested at a single concentration of 5 μM in duplicate incubating with 1.0 mg/ml of pooled human cytosol (obtained from Xenotech plc) at 37° C. Metabolism was assessed in the presence or absence of cofactors and measured as loss of parent compound by LC/MS analysis at 0, 60 and 120-minutes time points. Percent parent remaining was then calculated. A generic LC method was used: • Mobile phase: • A=0.1% Formic acid in water • B=0.1% Formic acid in acetonitrile • HPLC Column: Higgins Clipius C18 5 μm, 50×3 mm • Flow rate: 2 ml·min^−1

HepG2 cells = assay: In vitro cell toxicity in HepG2 at 24 h (MTS); format: cell-based, human; conditions: for cytotoxicity compared with prior art compounds: HepG2, 24 h; for cell toxicity in HepG2, percentage of control (relative cell viability): 100 μM, 24 h, MTS
Description: In Vitro Determination of Cell Toxicity in HepG2 at 24 h
HepG2 cells (human hepatocellular carcinoma) were obtained from the American Type Culture Collection (ATCC) and cultured in Eagle's Minimum Essential Medium (Eagle) with Earle's balanced salt solution adjusted to contain 1.87 mM Glutamax™ I, 0.1 mM non-essential amino acids, 1.0 mM sodium pyruvate, 100000 U/L penicillin, 10000 μg/L streptomycin 90%; fetal bovine serum, 10%. Promega CellTiter 96® Aqueous Non-Radioactive Cell Viability Assay contains the tetrazolium compound [3-(4,5-dimethylthiazol-2-yl)-5-(3-carboxymethoxyphenyl)-2-(4-sulfophenyl)-2H-tetrazolium, inner salt (MTS). The conversion of MTS into the aqueous soluble formazan product is accomplished by dehydrogenase enzymes found in metabolically active cells. The quantity of formazan product is directly proportional to the number of living cells in culture.
Compounds were dissolved in DMSO to achieve an initial concentration of 100 mM. Serial dilutions were made from this stock solution into DMSO to achieve concentrations of 10, 1, 0.1 and 0.01 mM. The stock solution and serial dilutions were then diluted 1:100 with cell culture medium to obtain […] final assay concentrations of […]. The final DMSO concentration in all wells was 1% v/v. HepG2 cells were incubated with test compounds for 24 hours. Relative cell viability was determined spectrophotometrically at 490 nm following the addition of the MTS dye and further one-hour incubation. Tamoxifen was used as the positive control.
The percent absorbance of the samples treated with the test article was compared to the untreated sample to calculate the percentage of control.

| Structure (SMILES) | inhibition in vivo at 0.98 µmol/kg (motor activity of mice; ip) [%] | inhibition in vivo at 98 µmol/kg (motor activity of mice; ip) [%] | inhibition at 10 µM [1] [%] | inhibition at 0.1 µM [1] [%] | inhibition at 10 µM [2] [%] | inhibition at 0.1 µM [2] [%] | inhibition in vivo at 3 µmol/kg (motor activity of mice; po) [%] | inhibition in vivo at 98 µmol/kg (motor activity of mice; po) [%] | Percent parent remaining ([4]; 60 min) [%] | Percent parent remaining ([4]; 120 min) [%] | cytotoxicity compared with prior art compounds (HepG2 cells) | cell toxicity in HepG2, percentage of control (relative cell viability) (HepG2 cells) [%] | further results |
| --- | --- | --- | --- | --- | --- | --- | --- | --- | --- | --- | --- | --- | --- |
| CN(c1cccc(-c2ccnc3c(C(=O)c4cccs4)cnn23)c1)S(C)(=O)=O [Example 3 WO2005014597, N-{3-[3-(thiophene-2-carbonyl)-pyrazolo[1,5-a]pyrimidin-7-yl]-phenyl}-N-methyl-methanesulfonamide, reference compound] | 64.6 | 89.8 | 99.8 | 58.5 | 100 | 90.6 | – | – | – | – | – | – | – |
| C#CCN(c1cccc(-c2ccnc3c(C(=O)c4cccs4)cnn23)c1)S(C)(=O)=O [Example 16 WO2005014597, N-{3-[3-(thiophene-2-carbonyl)-pyrazolo[1,5-a]pyrimidin-7-yl]-phenyl}-N-prop-2-ynyl-methanesulfonamide, reference compound] | 71.4 | 95.4 | – | – | 100 | 99.9 | 38.8 | 84.3 | – | – | – | – | – |
| CC(=O)N(C)c1cccc(-c2ccnc3c(C(=O)c4cccs4)cnn23)c1 [Indiplon, N-{3-[3-(thiophene-2-carbonyl)-pyrazolo[1,5-a]pyrimidin-7-yl]-phenyl}-N-methyl-acetamide, reference compound] | 70.5 | 88 | – | – | – | – | 73.7 | 82.4 | 100 | 98 | – | – | Vd [3]: 2.32 L/kg; clearance [3]: 57.5 mL/min/kg; half-life [3]: 0.984 h; AUC0-t [3]: 700 ng·h/mL; inhibition percentage (motor activity) (motor activity of mice; 5 minutes): 74%; inhibition percentage (motor activity) (motor activity of mice; 60 minutes): 67% |
| CC(=O)N(C)c1cc(-c2ccnc3c(C(=O)c4cccs4)cnn23)ccc1F [Preparative example 2, N-{2-Fluoro-5-[3-(thiophene-2-carbonyl)-pyrazolo[1,5-a]pyrimidin-7-yl]-phenyl}-N-methyl-acetamide] | 81.2 | 95 | 99.3 | 67.3 | 100 | 95.3 | 84 | 92.3 | 104 | 110 | less cytotoxicity than prior art compounds | – | Vd [3]: 7.24 L/kg; clearance [3]: 45.7 mL/min/kg; half-life [3]: 1.73 h; AUC0-t [3]: 1100 ng·h/mL; area under the curve higher than Indiplon ([3]; versus Indiplon): 57%; clearance lower than Indiplon ([3]; versus Indiplon): 20%; half-life higher than Indiplon ([3]; versus Indiplon): 76%; volume of distribution higher than Indiplon ([3]; versus Indiplon): 212%; inhibition percentage (motor activity) (motor activity of mice; 5 minutes): 84%; inhibition percentage (motor activity) (motor activity of mice; 60 minutes): 84% |
| CC(=O)N(C)c1cc(-c2ccnc3c(C(=O)c4cccs4)cnn23)ccc1Cl [Preparative example 4, N-{2-Chloro-5-[3-(thiophene-2-carbonyl)-pyrazolo[1,5-a]pyrimidin-7-yl]-phenyl}-N-methyl-acetamide] | – | 90.3 | 95.7 | 8.4 | 99.8 | 60 | – | 88.7 | 105 | 103 | less cytotoxicity than prior art compounds | 92.86 | – |
| CN(c1cc(-c2ccnc3c(C(=O)c4cccs4)cnn23)ccc1F)S(C)(=O)=O [Preparative example 6, N-{2-Fluoro-5-[3-(thiophene-2-carbonyl)-pyrazolo[1,5-a]pyrimidin-7-yl]-phenyl}-N-methyl-methanesulfonamide] | 69.4 | 91.5 | 97.9 | 55.9 | 99.7 | 88.8 | 46.2 | 82 | 103 | 106 | less cytotoxicity than prior art compounds | 84.31 | – |
| CN(c1cc(-c2ccnc3c(C(=O)c4cccs4)cnn23)ccc1Cl)S(C)(=O)=O [Preparative example 8, N-{2-Chloro-5-[3-(thiophene-2-carbonyl)-pyrazolo[1,5-a]pyrimidin-7-yl]-phenyl}-N-methyl-methanesulfonamide] | – | 78.3 | 68.9 | 0 | 93.8 | 40.9 | – | – | – | – | less cytotoxicity than prior art compounds | 75.39 | melting point: 241 to 243 °C |
| C#CCN(c1cc(-c2ccnc3c(C(=O)c4cccs4)cnn23)ccc1F)S(C)(=O)=O [Preparative example 10, N-{2-Fluoro-5-[3-(thiophene-2-carbonyl)-pyrazolo[1,5-a]pyrimidin-7-yl]-phenyl}-N-prop-2-ynyl-methanesulfonamide] | 91.9 | 91.6 | 100 | 97.5 | 100 | 99.7 | 47.9 | 90.2 | – | – | – | – | increase in sedative-hypnotic activity (motor activity of mice; versus Example 16 of WO2005014597, low dose, independently of the administration route): higher than 20%; melting point: 149 to 153 °C |
| CCN(C(C)=O)c1cccc(-c2ccnc3c(C#N)cnn23)c1 [Zaleplon, reference compound] | 32.7 | 85 | – | – | – | – | 25.4 | 64.1 | – | – | – | – | – |
